Laboratory results reported in the kinase profiling compilation of Christmann-Franck et al. (2016).

Key:
Test in all cases: radiometric filter-binding kinase assay, Kinase HotSpot
Conditions in all cases: compound 0.5 µM; ATP 10 µM
[1] = target: AKT1 (human) (UniProt P31749)
[2] = target: AURKA (human) (UniProt O14965)
[3] = target: CAMK2D (human) (UniProt Q13557)
[4] = target: CDK7 CCNH MNAT1 (human) (UniProt P50613+P51948+P51946)
[5] = target: CSNK1G1 (human) (UniProt Q9HCP0)
[6] = target: DYRK1B (human) (UniProt Q9Y463)
[7] = target: EPHA2 (human) (UniProt P29317)
[8] = target: EPHA8 (human) (UniProt P29322)
[9] = target: EPHB3 (human) (UniProt P54753)
[10] = target: ERBB2 (human) (UniProt P04626)
[11] = target: GSK3B (human) (UniProt P49841)
[12] = target: INSR (human) (UniProt P06213)
[13] = target: IRAK4 (human) (UniProt Q9NWZ3)
[14] = target: JAK1 JH1 catalytic (human) (UniProt P23458)
[15] = target: MAP2K1 (human) (UniProt Q02750)
[16] = target: MAPK11 (human) (UniProt Q15759)
[17] = target: MAPK3 (human) (UniProt P27361)
[18] = target: MAPKAPK3 (human) (UniProt Q16644)
[19] = target: MAPKAPK5 (human) (UniProt Q8IW41)
[20] = target: MERTK (human) (UniProt Q12866)
[21] = target: MLTK (human) (UniProt Q9NYL2)
[22] = target: NEK3 (human) (UniProt P51956)
[23] = target: NEK6 (human) (UniProt Q9HC98)
[24] = target: NTRK2 (human) (UniProt Q16620)
[25] = target: NUAK2 (human) (UniProt Q9H093)
[26] = target: OXSR1 (human) (UniProt O95747)
[27] = target: PAK3 (human) (UniProt O75914)
[28] = target: PBK (human) (UniProt Q96KB5)
[29] = target: PHKG1 (human) (UniProt Q16816)
[30] = target: PIM1 (human) (UniProt P11309)
[31] = target: PLK1 (human) (UniProt P53350)
[32] = target: PRKCA (human) (UniProt P17252)
[33] = target: PRKCH (human) (UniProt P24723)
[34] = target: PTK6 (human) (UniProt Q13882)
[35] = target: RAF1 (human) (UniProt P04049)
[36] = target: SLK (human) (UniProt Q9H2G2)
[37] = target: SRPK3 (human) (UniProt Q9UPE1)
[38] = target: STK16 (human) (UniProt O75716)
[39] = target: AURKC (human) (UniProt Q9UQB9)
[40] = target: CSF1R (human) (UniProt P07333)
[41] = target: HIPK1 (human) (UniProt Q86Z02)

Chain of INSR (human) (P06213 whole entry, looked up): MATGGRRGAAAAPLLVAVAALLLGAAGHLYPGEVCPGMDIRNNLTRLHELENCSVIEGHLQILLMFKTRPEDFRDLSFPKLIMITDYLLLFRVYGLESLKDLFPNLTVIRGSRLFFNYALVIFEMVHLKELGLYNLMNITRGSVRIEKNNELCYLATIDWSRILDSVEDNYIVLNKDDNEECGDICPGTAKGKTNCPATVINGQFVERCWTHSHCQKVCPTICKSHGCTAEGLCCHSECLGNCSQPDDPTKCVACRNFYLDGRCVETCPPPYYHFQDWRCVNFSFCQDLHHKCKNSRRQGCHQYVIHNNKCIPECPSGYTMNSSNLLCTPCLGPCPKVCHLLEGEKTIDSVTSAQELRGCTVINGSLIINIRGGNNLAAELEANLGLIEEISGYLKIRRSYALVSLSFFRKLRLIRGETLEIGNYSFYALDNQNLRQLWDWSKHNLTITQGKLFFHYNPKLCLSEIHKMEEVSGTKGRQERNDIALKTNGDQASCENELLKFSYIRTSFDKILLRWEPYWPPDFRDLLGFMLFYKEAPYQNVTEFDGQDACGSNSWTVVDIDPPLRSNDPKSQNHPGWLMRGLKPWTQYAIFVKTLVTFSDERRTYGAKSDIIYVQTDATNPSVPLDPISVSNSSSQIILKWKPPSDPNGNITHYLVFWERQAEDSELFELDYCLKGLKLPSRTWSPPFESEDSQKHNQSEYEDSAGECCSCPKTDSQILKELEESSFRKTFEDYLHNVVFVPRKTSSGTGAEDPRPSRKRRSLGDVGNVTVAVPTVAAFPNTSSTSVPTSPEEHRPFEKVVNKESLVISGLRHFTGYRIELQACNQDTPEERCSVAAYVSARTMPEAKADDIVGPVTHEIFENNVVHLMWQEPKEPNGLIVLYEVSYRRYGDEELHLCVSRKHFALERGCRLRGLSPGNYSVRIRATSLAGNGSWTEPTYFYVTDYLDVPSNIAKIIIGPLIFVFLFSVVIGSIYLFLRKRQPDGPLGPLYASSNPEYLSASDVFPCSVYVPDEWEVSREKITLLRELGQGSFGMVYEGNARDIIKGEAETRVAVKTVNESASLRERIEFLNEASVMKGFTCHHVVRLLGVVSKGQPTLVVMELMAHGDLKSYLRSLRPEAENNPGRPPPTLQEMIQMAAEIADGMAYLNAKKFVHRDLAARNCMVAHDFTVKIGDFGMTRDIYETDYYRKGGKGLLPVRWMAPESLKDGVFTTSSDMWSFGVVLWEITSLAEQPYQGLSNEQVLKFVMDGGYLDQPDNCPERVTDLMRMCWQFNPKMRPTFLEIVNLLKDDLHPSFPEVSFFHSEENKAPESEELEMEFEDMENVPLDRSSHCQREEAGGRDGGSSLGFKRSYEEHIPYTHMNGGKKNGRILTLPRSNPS
Chain of GSK3B (human) (P49841 whole entry, looked up): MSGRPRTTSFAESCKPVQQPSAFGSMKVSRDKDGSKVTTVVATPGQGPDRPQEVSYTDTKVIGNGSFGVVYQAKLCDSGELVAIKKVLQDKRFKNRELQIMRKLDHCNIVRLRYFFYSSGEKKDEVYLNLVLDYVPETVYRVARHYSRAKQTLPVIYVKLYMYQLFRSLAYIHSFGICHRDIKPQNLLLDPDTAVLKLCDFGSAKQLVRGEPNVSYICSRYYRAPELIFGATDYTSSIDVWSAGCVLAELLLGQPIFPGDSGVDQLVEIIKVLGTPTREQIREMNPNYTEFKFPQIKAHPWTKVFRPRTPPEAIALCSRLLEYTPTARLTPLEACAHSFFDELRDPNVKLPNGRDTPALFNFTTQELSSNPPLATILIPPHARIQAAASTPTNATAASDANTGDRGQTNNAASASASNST
Chain of DYRK1B (human) (Q9Y463 whole entry, looked up): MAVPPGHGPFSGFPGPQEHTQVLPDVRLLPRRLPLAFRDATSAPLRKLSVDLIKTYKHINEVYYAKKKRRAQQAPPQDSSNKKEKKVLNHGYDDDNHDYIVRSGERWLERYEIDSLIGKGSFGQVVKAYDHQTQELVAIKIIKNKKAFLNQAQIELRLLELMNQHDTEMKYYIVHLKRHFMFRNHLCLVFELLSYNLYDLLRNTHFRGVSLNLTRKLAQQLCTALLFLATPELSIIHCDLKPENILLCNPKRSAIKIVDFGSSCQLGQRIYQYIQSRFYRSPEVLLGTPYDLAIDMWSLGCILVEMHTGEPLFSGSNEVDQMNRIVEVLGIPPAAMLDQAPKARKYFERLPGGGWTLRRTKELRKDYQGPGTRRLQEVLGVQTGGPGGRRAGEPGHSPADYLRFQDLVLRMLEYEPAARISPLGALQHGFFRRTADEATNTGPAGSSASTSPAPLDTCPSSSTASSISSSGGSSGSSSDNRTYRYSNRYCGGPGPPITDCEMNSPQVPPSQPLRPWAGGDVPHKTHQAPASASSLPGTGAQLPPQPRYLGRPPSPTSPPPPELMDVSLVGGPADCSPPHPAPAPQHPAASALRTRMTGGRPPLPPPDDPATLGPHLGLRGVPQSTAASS
Chain of PAK3 (human) (O75914 whole entry, looked up): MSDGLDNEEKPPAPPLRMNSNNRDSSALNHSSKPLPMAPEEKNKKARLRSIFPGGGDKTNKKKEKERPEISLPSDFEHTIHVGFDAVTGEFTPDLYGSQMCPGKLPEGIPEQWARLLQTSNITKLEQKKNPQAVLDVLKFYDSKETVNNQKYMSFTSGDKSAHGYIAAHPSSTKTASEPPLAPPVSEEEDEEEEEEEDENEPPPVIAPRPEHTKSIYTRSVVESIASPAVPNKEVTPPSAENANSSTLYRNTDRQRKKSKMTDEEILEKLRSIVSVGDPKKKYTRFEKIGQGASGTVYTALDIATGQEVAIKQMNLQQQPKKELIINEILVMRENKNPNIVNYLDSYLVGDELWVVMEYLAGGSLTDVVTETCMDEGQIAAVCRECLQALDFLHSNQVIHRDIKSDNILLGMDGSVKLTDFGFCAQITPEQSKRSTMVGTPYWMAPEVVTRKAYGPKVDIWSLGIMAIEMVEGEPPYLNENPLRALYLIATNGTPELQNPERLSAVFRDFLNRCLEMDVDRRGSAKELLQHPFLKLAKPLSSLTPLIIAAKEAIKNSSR
Chain of SLK (human) (Q9H2G2 whole entry, looked up): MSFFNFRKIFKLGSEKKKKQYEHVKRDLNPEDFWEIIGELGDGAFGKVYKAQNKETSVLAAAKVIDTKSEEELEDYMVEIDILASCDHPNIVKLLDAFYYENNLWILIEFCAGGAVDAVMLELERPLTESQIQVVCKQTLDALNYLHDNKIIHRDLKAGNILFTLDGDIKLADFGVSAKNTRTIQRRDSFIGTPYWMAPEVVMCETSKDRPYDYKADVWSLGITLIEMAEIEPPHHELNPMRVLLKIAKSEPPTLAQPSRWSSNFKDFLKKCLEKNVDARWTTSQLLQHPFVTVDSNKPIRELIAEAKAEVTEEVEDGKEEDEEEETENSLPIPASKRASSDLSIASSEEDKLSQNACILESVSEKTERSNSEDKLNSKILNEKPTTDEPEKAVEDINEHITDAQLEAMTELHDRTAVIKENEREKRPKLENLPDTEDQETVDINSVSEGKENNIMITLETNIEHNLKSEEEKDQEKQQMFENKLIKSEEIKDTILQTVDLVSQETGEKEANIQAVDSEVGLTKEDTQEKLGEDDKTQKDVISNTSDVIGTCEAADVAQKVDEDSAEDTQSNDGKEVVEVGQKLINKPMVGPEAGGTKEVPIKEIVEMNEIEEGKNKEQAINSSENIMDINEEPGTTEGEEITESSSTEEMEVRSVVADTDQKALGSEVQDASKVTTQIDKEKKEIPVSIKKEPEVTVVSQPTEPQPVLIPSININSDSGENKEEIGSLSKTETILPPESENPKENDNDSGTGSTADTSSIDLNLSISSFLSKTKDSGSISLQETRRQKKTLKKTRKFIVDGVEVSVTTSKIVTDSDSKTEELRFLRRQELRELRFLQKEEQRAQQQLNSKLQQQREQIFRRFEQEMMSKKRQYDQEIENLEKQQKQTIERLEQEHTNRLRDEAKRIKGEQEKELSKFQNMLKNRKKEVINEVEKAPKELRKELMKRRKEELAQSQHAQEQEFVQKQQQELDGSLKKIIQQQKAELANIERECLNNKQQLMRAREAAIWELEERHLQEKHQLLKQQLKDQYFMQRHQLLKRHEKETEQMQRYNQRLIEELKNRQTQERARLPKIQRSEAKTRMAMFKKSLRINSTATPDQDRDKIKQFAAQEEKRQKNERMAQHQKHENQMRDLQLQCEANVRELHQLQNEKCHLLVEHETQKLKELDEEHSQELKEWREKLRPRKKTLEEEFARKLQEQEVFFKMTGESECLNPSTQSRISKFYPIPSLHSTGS
Chain of RAF1 (human) (P04049 whole entry, looked up): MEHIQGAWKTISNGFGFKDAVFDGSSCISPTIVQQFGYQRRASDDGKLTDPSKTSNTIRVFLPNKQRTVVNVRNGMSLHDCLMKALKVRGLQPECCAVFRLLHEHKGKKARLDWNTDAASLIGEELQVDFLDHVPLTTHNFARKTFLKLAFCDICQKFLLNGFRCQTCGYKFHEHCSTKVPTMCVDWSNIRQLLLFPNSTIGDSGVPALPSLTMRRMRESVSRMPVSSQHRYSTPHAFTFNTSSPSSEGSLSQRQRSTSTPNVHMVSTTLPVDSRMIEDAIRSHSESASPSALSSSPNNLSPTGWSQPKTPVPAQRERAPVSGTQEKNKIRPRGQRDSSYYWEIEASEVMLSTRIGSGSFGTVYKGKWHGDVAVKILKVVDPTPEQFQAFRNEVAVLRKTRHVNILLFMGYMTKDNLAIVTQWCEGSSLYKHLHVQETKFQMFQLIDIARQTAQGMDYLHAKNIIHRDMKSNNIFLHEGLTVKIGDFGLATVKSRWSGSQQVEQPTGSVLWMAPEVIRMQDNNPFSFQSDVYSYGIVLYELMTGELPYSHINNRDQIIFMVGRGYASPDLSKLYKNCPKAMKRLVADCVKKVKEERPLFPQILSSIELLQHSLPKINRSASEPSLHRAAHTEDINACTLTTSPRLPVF

## C#Cc1cccc(Nc2ncnc3cc(OCCOC)c(OCCOC)cc23)c1
[1]
  residual activity: 93.7%
[2]
  residual activity: 75.3%
[3]
  residual activity: 95.1%
[4]
  residual activity: 107%
[5]
  residual activity: 104%
[6]
  residual activity: 93.7%
[7]
  residual activity: 91.3%
[8]
  residual activity: 89.7%
[9]
  residual activity: 58%
[10]
  residual activity: 52.8%
[11]
  residual activity: 102%
[12]
  residual activity: 102%
[13]
  residual activity: 93.8%
[14]
  residual activity: 91.2%
[15]
  residual activity: 105%
[16]
  residual activity: 97.8%
[17]
  residual activity: 101%
[18]
  residual activity: 98.1%
[19]
  residual activity: 89.7%
[20]
  residual activity: 99%
[21]
  residual activity: 92.2%
[22]
  residual activity: 95.6%
[23]
  residual activity: 89.1%
[24]
  residual activity: 93.1%
[25]
  residual activity: 95.3%
[26]
  residual activity: 102%
[27]
  residual activity: 106%
[28]
  residual activity: 104%
[29]
  residual activity: 93.2%
[30]
  residual activity: 97%
[31]
  residual activity: 100%
[32]
  residual activity: 88.6%
[33]
  residual activity: 116%
[34]
  residual activity: 85.9%
[35]
  residual activity: 93.7%
[36]
  residual activity: 42%
[37]
  residual activity: 101%
[38]
  residual activity: 98%

## CC(C)[C@H](CO)Nc1nc(Nc2cccc(Cl)c2)c2ncn(C(C)C)c2n1
[1]
  residual activity: 102%
[2]
  residual activity: 80.6%
[39]
  residual activity: 93.2%
[3]
  residual activity: 102%
[4]
  residual activity: 59.5%
[40]
  residual activity: 96.9%
[5]
  residual activity: 28%
[6]
  residual activity: 49.9%
[7]
  residual activity: 89.5%
[8]
  residual activity: 102%
[9]
  residual activity: 102%
[10]
  residual activity: 97.1%
[11]
  residual activity: 103%
[41]
  residual activity: 103%
[12]
  residual activity: 83%
[13]
  residual activity: 88.6%
[14]
  residual activity: 108%
[15]
  residual activity: 96%
[16]
  residual activity: 109%
[17]
  residual activity: 104%
[18]
  residual activity: 85.4%
[19]
  residual activity: 97.6%
[20]
  residual activity: 84.7%
[21]
  residual activity: 108%
[22]
  residual activity: 94.2%
[23]
  residual activity: 91.3%
[24]
  residual activity: 33.4%
[25]
  residual activity: 134%
[26]
  residual activity: 94.4%
[27]
  residual activity: 94.2%
[28]
  residual activity: 102%
[29]
  residual activity: 89.9%
[30]
  residual activity: 104%
[31]
  residual activity: 89.2%
[32]
  residual activity: 115%
[33]
  residual activity: 92.7%
[34]
  residual activity: 89.2%
[35]
  residual activity: 98.9%
[36]
  residual activity: 73.1%
[37]
  residual activity: 70.4%
[38]
  residual activity: 102%

## CS(=O)c1ccc(-c2nc(-c3ccc(F)cc3)c(-c3ccncc3)[nH]2)cc1 (stereo not drawn)
[1]
  residual activity: 102%
[2]
  residual activity: 99.5%
[39]
  residual activity: 98.5%
[3]
  residual activity: 103%
[4]
  residual activity: 96.8%
[40]
  residual activity: 95.5%
[5]
  residual activity: 95.7%
[6]
  residual activity: 104%
[7]
  residual activity: 94.8%
[8]
  residual activity: 101%
[9]
  residual activity: 96.7%
[10]
  residual activity: 94.6%
[11]
  residual activity: 80.2%
[41]
  residual activity: 104%
[12]
  residual activity: 88.9%
[13]
  residual activity: 130%
[14]
  residual activity: 105%
[15]
  residual activity: 94.8%
[16]
  residual activity: 68.9%
[17]
  residual activity: 101%
[19]
  residual activity: 92.5%
[20]
  residual activity: 93.9%
[21]
  residual activity: 100%
[22]
  residual activity: 92.2%
[23]
  residual activity: 103%
[24]
  residual activity: 104%
[25]
  residual activity: 131%
[26]
  residual activity: 102%
[27]
  residual activity: 102%
[28]
  residual activity: 102%
[29]
  residual activity: 94.1%
[30]
  residual activity: 103%
[31]
  residual activity: 100%
[32]
  residual activity: 92.3%
[34]
  residual activity: 54.2%
[35]
  residual activity: 41.1%
[36]
  residual activity: 94.1%
[37]
  residual activity: 99.4%
[38]
  residual activity: 111%
